Laboratory results as given in patent US20220265629A1, “TREATMENT OF SYSTOLIC DYSFUNCTION AND HEART FAILURE WITH REDUCED EJECTION FRACTION WITH THE COMPOUND (R)-4-(1-((3-(DIFLUOROMETHYL)-1-METHYL-1H-PYRAZOL-4-YL)SULFONYL)-1-FLUOROETHYL)-N-(ISOXAZOL-3-YL)PIPERIDINE-1-CARBOXAMIDE” (MyoKardia, Inc., priority 2019, published 2022).
Read-outs that look alike come from different tables or passages of the source.

Experiments:
[1] = system: patients with stable HFrEF; assay: HFrEF study Part 2 (MAD Cohorts A-D): safety (TEAEs, serum troponin, ECG, Holter); format: in vivo, human
Experimental: Safety and efficacy assessments were conducted by measuring patients' vital signs and laboratory parameters; performing TTE to measure, e.g., systolic ejection time; performing electrocardiograms (e.g., 12-lead ECG), real-time ECG telemetry (e.g., at least 3-lead), and Holter ECG; and measuring levels of troponin (e.g., troponin I and/or troponin T) and […].
The following safety laboratory parameters were measured: (1) hematology parameters (CBC, including differential count, and platelet count); (2) serum chemistry parameters (e.g., sodium, potassium, chloride, bicarbonate, calcium, magnesium, urea, creatinine, ALP, ALT, AST, total bilirubin, glucose, and CPK); and (3) urinalysis parameters (e.g., pH, protein, glucose, leukocyte esterase, and blood).
Abnormal and/or rising troponin values (as per investigator's judgment and taking into account potential baseline troponin elevation frequently observed in heart failure) led to the patient being clinically evaluated for possible myocardial ischemia. […] The entire clinical context (e.g., signs, symptoms, new ECG changes, new troponin, and CK-MB abnormalities) was evaluated and correlated with any other relevant clinical findings, patient's medical history, and laboratory data to determine the clinical significance of the findings. Troponin results performed on Day 2 of Part 1 (SAD) and Day 10 of Part 2 (MAD) at a local lab were reviewed prior to the patient being discharged the next day.

[2] = Pharmacokinetics in beagle dogs (single doses); format: in vivo
Experimental: The pharmacokinetics of Compound I have been evaluated in multiple dog studies. […] At a single dose<3 mg/kg, the observed oral bioavailability was approximately 100%. This nonlinear pharmacokinetics of Compound I was also observed in humans. […] In order to delineate the underlying mechanism responsible for the nonlinear pharmacokinetics, physiologically-based absorption models of Compound I for beagle dogs and healthy volunteers were developed and used to assess the effect of particle size on the in vivo dissolution, absorption, bioavailability, and systemic exposure of Compound I.
Data used for Compound I physiologically-based pharmacokinetic (PBPK) model development and verification were obtained from in vivo nonclinical studies in dogs (FIG. 13), a clinical study in healthy volunteers (Example 1), and in vitro experiments (Table 20).

[3] = serum, MAD cohorts, Total Compound I (n = 22), ULN = 0.014
[4] = serum, MAD cohorts, Total Compound I (n = 30), ULN = 0.03

Cn1cc(S(=O)(=O)[C@@](C)(F)C2CCN(C(=O)Nc3ccon3)CC2)c(C(F)F)n1 [Compound I, (R)-4-(1-((3-(difluoromethyl)-1-methyl-1H-pyrazol-4-yl)sulfonyl)-1-fluoroethyl)-N-(isoxazol-3-yl)piperidine-1-carboxamide]
TEAE: Application site erosion ([1]; Cohort D 100 mg BID (n = 6)): 0 n (%) | TEAE: Arthralgia ([1]; Cohort D 100 mg BID (n = 6)): 0 n (%) | TEAE: Arthropod bite ([1]; Cohort D 100 mg BID (n = 6)): 1 (16.7) n (%) | TEAE: Back pain ([1]; Cohort D 100 mg BID (n = 6)): 0 n (%) | TEAE: Blood creatine phosphokinase increased ([1]; Cohort D 100 mg BID (n = 6)): 0 n (%) | TEAE: Blood creatinine increased ([1]; Cohort D 100 mg BID (n = 6)): 1 (16.7) n (%) | TEAE: Cough ([1]; Cohort D 100 mg BID (n = 6)): 0 n (%) | TEAE: Dermatitis contact ([1]; Cohort D 100 mg BID (n = 6)): 0 n (%) | TEAE: Dry eye ([1]; Cohort D 100 mg BID (n = 6)): 0 n (%) | TEAE: Fatigue ([1]; Cohort D 100 mg BID (n = 6)): 0 n (%) | TEAE: Fluid overload ([1]; Cohort D 100 mg BID (n = 6)): 0 n (%) | TEAE: Gingival pain ([1]; Cohort D 100 mg BID (n = 6)): 1 (16.7) n (%) | TEAE: Hyperkalemia ([1]; Cohort D 100 mg BID (n = 6)): 0 n (%) | TEAE: Infusion site erythema ([1]; Cohort D 100 mg BID (n = 6)): 0 n (%) | TEAE: Nasopharyngitis ([1]; Cohort D 100 mg BID (n = 6)): 0 n (%) | TEAE: Rash ([1]; Cohort D 100 mg BID (n = 6)): 0 n (%) | TEAE: Renal failure ([1]; Cohort D 100 mg BID (n = 6)): 0 n (%) | TEAE: Renal impairment ([1]; Cohort D 100 mg BID (n = 6)): 0 n (%) | TEAE: Testicular pain ([1]; Cohort D 100 mg BID (n = 6)): 0 n (%) | TEAE: Troponin increased ([1]; Cohort D 100 mg BID (n = 6)): 1 (16.7) n (%) | TEAE: Ventricular tachycardia ([1]; Cohort D 100 mg BID (n = 6)): 1 (16.7) n (%) | QTc ([1]; MAD cohorts): No increase | patients with treatment-emergent adverse events (TEAEs) ([1]; MAD cohorts, 50-100 mg BID): 17 (57%) | patients with transient asymptomatic increase in troponin I or hs-troponin T ([1]; MAD cohorts, all doses): 7 (23%) | Any AE leading to death, number of patients (%) ([1]; Total Compound I (n = 30)): 0 n (%) | Any TEAE leading to permanent treatment discontinuation, number of patients (%) ([1]; Total Compound I (n = 30)): 0 n (%) | Any TEAE, number of patients (%) ([1]; Total Compound I (n = 30)): 17 (56.7) n (%) | Any serious TEAE, number of patients (%) ([1]; Total Compound I (n = 30)): 1 (3.3) n (%) | TEAE: Abdominal discomfort ([1]; Total Compound I (n = 30)): 1 (3.3) n (%) | TEAE: Alanine aminotransferase increased ([1]; Total Compound I (n = 30)): 2 (6.7) n (%) | TEAE: Anemia ([1]; Total Compound I (n = 30)): 1 (3.3) n (%) | TEAE: Application site erosion ([1]; Total Compound I (n = 30)): 1 (3.3) n (%) | TEAE: Arthralgia ([1]; Total Compound I (n = 30)): 0 n (%) | TEAE: Arthropod bite ([1]; Total Compound I (n = 30)): 1 (3.3) n (%) | TEAE: Back pain ([1]; Total Compound I (n = 30)): 0 n (%) | TEAE: Blood creatine phosphokinase increased ([1]; Total Compound I (n = 30)): 1 (3.3) n (%) | TEAE: Blood creatinine increased ([1]; Total Compound I (n = 30)): 1 (3.3) n (%) | TEAE: Cough ([1]; Total Compound I (n = 30)): 1 (3.3) n (%) | TEAE: Dermatitis contact ([1]; Total Compound I (n = 30)): 2 (6.7) n (%) | TEAE: Dry eye ([1]; Total Compound I (n = 30)): 0 n (%) | TEAE: Fatigue ([1]; Total Compound I (n = 30)): 2 (6.7) n (%) | TEAE: Fluid overload ([1]; Total Compound I (n = 30)): 1 (3.3) n (%) | TEAE: Gingival pain ([1]; Total Compound I (n = 30)): 1 (3.3) n (%) | TEAE: Hyperkalemia ([1]; Total Compound I (n = 30)): 1 (3.3) n (%) | TEAE: Infusion site erythema ([1]; Total Compound I (n = 30)): 1 (3.3) n (%) | TEAE: Nasopharyngitis ([1]; Total Compound I (n = 30)): 0 n (%) | TEAE: Rash ([1]; Total Compound I (n = 30)): 1 (3.3) n (%) | TEAE: Renal failure ([1]; Total Compound I (n = 30)): 0 n (%) | TEAE: Renal impairment ([1]; Total Compound I (n = 30)): 0 n (%) | TEAE: Testicular pain ([1]; Total Compound I (n = 30)): 0 n (%) | TEAE: Troponin increased ([1]; Total Compound I (n = 30)): 2 (6.7) n (%) | TEAE: Ventricular tachycardia ([1]; Total Compound I (n = 30)): 2 (6.7) n (%) | hs-troponin T, max change from baseline [1, 3]: (0.041) ng/mL | hs-troponin T, max peak troponin post dose [1, 3]: (0.052) ng/mL | hs-troponin T, median change from baseline [1, 3]: 0.005 ng/mL | hs-troponin T, median peak troponin post dose [1, 3]: 0.020 ng/mL | Troponin I, max change from baseline [1, 4]: (0.87) ng/mL | Troponin I, max peak troponin post dose [1, 4]: (0.88) ng/mL | Troponin I, median change from baseline [1, 4]: 0.010 ng/mL | Troponin I, median peak troponin post dose [1, 4]: 0.025 ng/mL | safety and tolerability ([1]; single dose up to 550 mg and 50 to 100 mg BID for 7 days, HFrEF subjects): safe and generally well-tolerated | bioavailability ([2]; beagle, dog, plasma, po, single dose <3 mg/kg, read-out: oral bioavailability): ~100% | bioavailability ([2]; beagle, dog, plasma, oral 10 mg/kg, micronized (Dv50=3.2 μm), read-out: bioavailability): > 100% | bioavailability ([2]; beagle, dog, plasma, oral 100 mg, Dv50=46 μm, read-out: bioavailability): ~40% | Vd ([2]; beagle, plasma, 1-compartmental model analysis of in vivo data in dog): 1.51 L/kg | clearance ([2]; beagle, plasma, 1-compartmental model analysis of in vivo data in dog, read-out: CL (Dog) (converted)): 1.58 mL/min/kg | bioavailability ([2]; single oral dose 25 mg (3 mg/kg) or lower, regardless of particle size): approximately 100%
